PMC3325938, “Activity of Clinically Relevant Antimalarial Drugs on Plasmodium falciparum Mature Gametocytes in an ATP Bioluminescence “Transmission Blocking” Assay” (PLoS ONE, 2012)
In brackets after ≈: the same amount, converted by molar mass. Like-named read-outs stand apart in the source and are kept apart here.

How the values were obtained:
[1] = test system: P. falciparum stage IV–V gametocytes (3D7HT-GFP strain); experiment: microbe, parasite or virus in culture; type: cell-based, Plasmodium falciparum
Description: Once purified, gametocytes were counted using a Neubauer chamber. Gametocytes (5×10^4 gametocytes per well) were transferred to a 96-well plate in a final volume of 100 µL, and dilutions of each drug were added (final DMSO concentration 0.5%). Plates were incubated (at 37°C in a 5% CO2 humidified incubator) for 48 h. The ATP level of each well was determined using the BacTiter-Glo™ reagent (Promega) according to manufacturer's recommendations. The BacTiter-Glo™ assay generates a “glow-type” luminescent signal produced by the luciferase reaction, which consists of mono-oxygenation of luciferin catalyzed by luciferase in the presence of Mg2+, ATP, and molecular oxygen.

[2] = test system: P. falciparum mature gametocytes; experiment: Microscopic enumeration of gametocytes on Giemsa-stained smears; type: cell-based, Plasmodium falciparum; settings: read-out: IC50 gametocytes Microscopy examination
Description: 100 µl of the culture (day 15, HT 6%) were plated in each well with the appropriate dilution of drug. 48 h after, 10 µl of each well was used to prepare a thin blood film and stain it with Giemsa. The number of gametocytes per 10,000–15,000 RBCs were counted and compared to the control (no drug, 0.5% DMSO).

[3] = test system: P. falciparum asexual forms (3D7A); experiment: In vitro antiplasmodial activity on asexual stages (uptake of radiolabeled nucleic acid precursor), 3D7A; type: cell-based, Plasmodium falciparum; settings: read-out: IC50 Activity against asexual forms (3D7A)
Description: (§1) IC50 values were measured as previously reported but all of the tests were done with serum-free cultures (using AlbuMAX II)

[4] = test system: P. falciparum asexual forms (3D7HT-GFP); experiment: In vitro antiplasmodial activity on asexual stages (uptake of radiolabeled nucleic acid precursor), 3D7HT-GFP; type: cell-based, Plasmodium falciparum; settings: read-out: IC50 Activity against asexual forms (3D7HT-GFP)
Description: as §1

[5] = Cytotoxicity, resazurin-based reductase assay; type: cell-based, human; settings: human, HepG2, 48 h exposure, resazurin, mean ± SD, 3–6 independent experiments
Description: (§2) Cells were grown and maintained in EMEM (Sigma-Aldrich) supplemented with 2 mM L-glutamine (Sigma-Aldrich) and 10% fetal calf serum (Perbio). […] For cytotoxicity experiments, cells were seeded onto 96-well clear bottom black plates coated with type I collagen (Biocoat, Becton Dickinson) at a cell density of 10000 cells/well.
(§3) The culture medium was as described above, but supplemented with 5% fetal calf serum. Following the 48 h exposure period, a 0.004% resazurin solution was prepared by adding 60 mL of Dulbecco's PBS to each resazurin tablet (VWR International). The tablet was allowed to dissolve by placing the container in a bath maintained at 37°C, protected from light, for approximately 30 minutes. Medium was removed and 200 µL of fresh culture medium and 50 µL of resazurin solution were added to each well. Plates were incubated for a further 1 ½ hours. Cytotoxicity is indicated by decreased reduction of resazurin to its fluorescent product resorufin. The fluorescence was stabilized at room temperature for 15 minutes protected from light. […] Percentages of inhibition were calculated relative to the control wells.

gametocytes [6] = test system: gametocytes; design: method as in PMID 17242150; settings: cited from earlier work
gametocytes [7] = settings: cited from earlier work
HepG2 cells = experiment: Cytotoxicity, resazurin-based reductase assay; type: cell-based, human
Description: as §2, §3

gametocytes [8] = test system: gametocytes; design: method as in PMID 21316401; settings: at 1 µM; cited from earlier work
late gametocytes = test system: late gametocytes; design: method as in PMID 20149239; settings: flow cytometry assay; cited from earlier work
[9] = Plasmodium falciparum, 48 h, read-out: IC50 Activity against mature gametocytes IV–V, ATP bioluminescence, 48 h, 3D7HT-GFP, mean ± SD, 3–6 independent experiments
[10] = Plasmodium falciparum, 48 h, read-out: IC50 gametocytes ATP method, mature gametocytes, 48 h drug exposure (Table 1)
[11] = Plasmodium falciparum, mature gametocytes, 48 h incubation, Giemsa smear counting
[12] = Plasmodium falciparum, mean ± SD, 3–6 independent experiments, serum-free (AlbuMAX II)

| Compound | IC50 [1, 9] [nM] | IC50 [3, 12] [nM] | IC50 ([4]; Plasmodium falciparum) [nM] | IC50 at 48 h ([5]; HepG2 cells) [nM] | other results |
| --- | --- | --- | --- | --- | --- |
| C[C@H]1[C@H](OC(=O)CCC(=O)O)O[C@@H]2O[C@@]3(C)CC[C@H]4[C@H](C)CC[C@@H]1[C@@]24OO3 [Artesunate] | 10800 ± 3700 | 37 ± 25 | 54 ± 30 | > 50000 | IC50 [1, 10]: 10800 nM; IC50 [2, 11]: 2260 nM; IC50 (gametocytes [6]): 108 nM; IC50 on gametocytes (gametocytes [7]): 0.1 ng/mL (≈ 0.26 nM) |
| O=C1C(O)=C([C@H]2CC[C@H](c3ccc(Cl)cc3)CC2)C(=O)c2ccccc21 [Atovaquone] | 16100 ± 2120 | 0.7 ± 0.4 | 1.8 ± 0.2 | > 40000 | cytotoxic effects (in words) (HepG2 cells; at the maximum solubility in culture media): No cytotoxic effects were detected |
| CC[C@H]1OC(=O)[C@H](C)[C@@H](O[C@H]2C[C@@](C)(OC)[C@@H](O)[C@H](C)O2)[C@H](C)[C@@H](O[C@@H]2O[C@H](C)C[C@H](N(C)C)[C@H]2O)[C@](C)(O)C[C@@H](C)CN(C)[C@H](C)[C@@H](O)[C@]1(C)O [Azythromycin] | 28400 ± 640 | – | > 10000 | > 50000 | IC50 ([3]; Plasmodium falciparum): > 10000 nM |
| CCN(CC)CCCC(C)Nc1ccnc2cc(Cl)ccc12 (stereo not drawn) [Chloroquine] | 23500 ± 2660 | – | 7 ± 2 | – | IC50 [1, 10]: 23500 nM; IC50 ([2]; Plasmodium falciparum, 48 h): 28400 nM; IC50 ([3]; Plasmodium falciparum): 6 ± 0.2 nM |
| C[C@@H]1C[C@@H]([C@H](O)CC2CC(=O)NC(=O)C2)C(=O)[C@@H](C)C1 [Cycloheximide] | – | – | 194 ± 7.7 | – | IC50 ([1]; Plasmodium falciparum, 48 h, read-out: IC50 Activity against mature gametocytes IV–V): 6230 ± 2460 nM; IC50 ([3]; Plasmodium falciparum): 198 ± 1.7 nM; IC50 at 48 h [5]: 2950 ± 350 nM |
| C[C@H]1[C@@H](O)O[C@@H]2O[C@@]3(C)CC[C@H]4[C@H](C)CC[C@@H]1[C@@]24OO3 [Dihydroartemisinin] | 3560 ± 950 | 2.8 ± 0.7 | 13 ± 3 | > 50000 | IC50 [1, 10]: 3560 nM; IC50 [2, 11]: 2470 nM; inhibition of gametocytes (gametocytes [8]): 70.4% |
| CC[C@H](C)[C@H](NC(=O)[C@H]([C@@H](C)CC)N(C)C(C)=O)C(=O)N[C@H](C(=O)N[C@@H](CC(C)C)C(=O)[C@@]1(C)CO1)[C@@H](C)O [Epoxomicin] | – | – | – | – | IC50 ([1]; ATP bioluminescence, 48 h, 3D7HT-GFP, mean ± SD, 3–6 independent experiments, read-out: IC50 Activity against mature gametocytes IV–V): 0.42 ± 0.11 nM; IC50 ([1]; mature gametocytes, 48 h drug exposure (Table 1), read-out: IC50 gametocytes ATP method): 0.42 nM; IC50 ([2]; mature gametocytes, 48 h incubation, Giemsa smear counting): 5.2 nM; IC50 [3]: 8 ± 1 nM; IC50 ([4]; mean ± SD, 3–6 independent experiments, serum-free (AlbuMAX II)): 9.8 ± 1.7 nM; IC50 (HepG2 cells; HepG2, 48 h exposure, resazurin, mean ± SD, 3–6 independent experiments): 3 ± 0.5 nM |
| CCCCN(CCCC)CCC(O)c1cc2c(Cl)cc(Cl)cc2c2cc(C(F)(F)F)ccc12 (stereo not drawn) [Halofantrine] | 6700 ± 420 | 1.1 ± 0.5 | 1.2 ± 0.5 | > 50000 | – |
| CCN(CC)Cc1ccc(Nc2ccnc3cc(Cl)ccc23)cc1O [Isoquine] | 28500 ± 2120 | 9 ± 1.6 | 4.4 ± 3.2 | 17100 ± 6300 | – |
| CCCCN(CCCC)CC(O)c1cc(Cl)cc2c1-c1ccc(Cl)cc1/C2=C/c1ccc(Cl)cc1 (stereo not drawn) [Lumefantrine] | > 50000 | 3.2 ± 0.14 | 1.65 ± 0.07 | > 50000 | – |
| OC(c1cc(C(F)(F)F)nc2c(C(F)(F)F)cccc12)C1CCCCN1 (stereo not drawn) [Mefloquine] | 4900 | 26 ± 17 | 28 ± 1.4 | 11000 ± 260 | IC50 ([1]; read-out: IC50 Activity against mature gametocytes IV–V, ATP bioluminescence, 48 h, 3D7HT-GFP, mean ± SD, 3–6 independent experiments): 4700 ± 2100 nM; selectivity ratio (IC50 in HepG2 cells / IC50 in P. falciparum gametocytes) (HepG2 cells; HepG2 versus mature gametocytes): 2.34 |
| CN(C)c1ccc2nc3ccc(=[N+](C)C)cc-3sc2c1 [Methylene blue] | 490 ± 160 | 11 ± 8 | 10 ± 1.8 | 6520 ± 1310 | IC50 [1, 10]: 490 nM; IC50 [2, 11]: 760 nM |
| COc1cc(NC(C)CCCN)c2ncccc2c1 (stereo not drawn) [Primaquine] | 20900 ± 4650 | > 10000 | > 10000 | – | IC50 [1, 10]: 20900 nM; IC50 [2, 11]: 87900 nM; IC50 at 48 h [5]: > 50000 nM |
| CCc1nc(N)nc(N)c1-c1ccc(Cl)cc1 [Pyrimethamine] | > 50000 | – | 33700 ± 6720 | > 50000 | effect on mature gametocytes (in words) ([1]; 3D7HT-GFP line resistant to drugs acting on DHFR): did not have any effect |
| COc1ccc2nc3cc(Cl)ccc3c(Nc3cc(CN4CCCC4)c(O)c(CN4CCCC4)c3)c2n1 [Pyronaridine] | ~3250 | 4.5 ± 1.5 | 0.8 ± 0.1 | 5950 ± 920 | – |
| C=C[C@H]1C[N@@]2CC[C@H]1C[C@H]2[C@H](O)c1ccnc2ccc(OC)cc12 [Quinine] | – | 66 ± 18 | 106 ± 40 | > 50000 | – |
| C[C@@H]1CC[C@H]2[C@@H](C)C(=O)O[C@@H]3O[C@@]4(C)CC[C@@H]1[C@]32OO4 [artemisinin] | – | – | – | – | IC50 (late gametocytes): 1000 nM |
